In patent US20220401514A1, “ANTIMICROBIAL, BACTERIOPHAGE-DERIVED POLYPEPTIDES AND THEIR USE AGAINST GRAM-NEGATIVE AND ACID-FAST BACTERIA” (CONTRAFECT CORPORATION, priority 2019, published 2022):
Like-named read-outs stand apart in the source and are kept apart here.

How the values were obtained:
Pseudomonas aeruginosa = test: microbe, parasite or virus in culture; format: cell-based; conditions: P. aeruginosa isolates (n per peptide in table)
[1] = tested on: P. aeruginosa strain CFS-1292; test: MIC in presence of divalent cations (calcium chloride, magnesium sulfate); format: cell-based, Pseudomonas aeruginosa
Description: Next, Chp peptides were evaluated in the presence of different divalent cations. […]; (2) in the presence of 2 mM calcium chloride alone; (3) in the presence of 1 mM magnesium sulfate alone; and (4) in the presence of both 2 mM calcium chloride and 1 mM magnesium sulfate. […]

[2] = tested on: P. aeruginosa strain CFS-1292; test: MIC in presence and absence of Survanta pulmonary surfactant; format: cell-based, Pseudomonas aeruginosa
M. smegmatis = test: 45 hr MIC against M. smegmatis (NTM), Mueller Hinton broth; format: cell-based, Mycobacterium smegmatis
Enterobacter cloacae = test: microbe, parasite or virus in culture; format: cell-based
How it was run: (§1)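 Strains are exposed to peptide dilutions in CAA containing human serum, and the minimal inhibitory concentration is recorded.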

Escherichia coli = test: microbe, parasite or virus in culture; format: cell-based
How it was run: as §1

[3] = tested on: P. aeruginosa strain CFS-1292; test: MIC at pH 6, pH 7 and pH 8; format: cell-based, Pseudomonas aeruginosa
Description: The Chp peptides were further evaluated at varying pH levels. The MIC values were determined at pH 6, pH 7, and pH 8 for 18 different Chp peptides against P. aeruginosa strain CFS-1292. […]

[4] = tested on: Pseudomonas aeruginosa, Escherichia coli, Enterobacter cloacae, Klebsiella pneumoniae, and Acinetobacter baumannii; test: MIC against a range of Gram-negative organisms (statements covering several species); format: cell-based; conditions: Tables 40-44 isolates
Description: (§2) Determination of Minimal Inhibitory Concentrations (MIC).
(§3) Additional MIC testing was performed for several peptides against the ESKAPE pathogens Escherichia coli, Enterobacter cloacae, Klebsiella pneumoniae, and Acinetobacter baumannii, in CAA supplemented with human serum (Table D).

M. avium = test: 45 hr MIC against M. avium (NTM); format: cell-based, Mycobacterium avium; conditions: M. avium Chester ATCC 700898
S. maltophilia = test: MIC against S. maltophilia isolates; format: cell-based, Stenotrophomonas maltophilia; conditions: S. maltophilia isolates (n per peptide in table)
How it was run: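 MIC in μg/mL for Chp peptides across several S. maltophilia isolates, n denoting the number of isolates tested.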

[5] = tested on: P. aeruginosa strain CFS-1292; test: MIC in presence of mouse, rat, rabbit and human serum ([…] each); format: cell-based, Pseudomonas aeruginosa; conditions: P. aeruginosa CFS-1292
Description: The activity of several Chp peptides against P. aeruginosa strain CFS-1292 in animal serum was evaluated. […] Rat, mouse, and rabbit serum were all obtained from pooled gender samples.

[6] = tested on: carbapenem-resistant P. aeruginosa clinical isolate CFS-1292; test: MIC by modified CLSI broth microdilution against P. aeruginosa CFS-1292 (CAA, CAA + human serum); format: cell-based, Pseudomonas aeruginosa
[7] = Stability assessment in 100% CAA; format: in vitro ADME; set-up: unit not given beside the values
Description: Stability was assessed after incubation in 100% human serum at 37° C. after 10 minutes, 1 hour, and 2 hours.
Stability assessment was further conducted in 100% CAA and rabbit serum using the same methodology discussed above.

[8] = tested on: carbapenem-resistant bacterial strains; test: organism not typed; format: cell-based
Source text: as §2

Acinetobacter baumannii = test: microbe, parasite or virus in culture; format: cell-based
M. intracellulare = test: 45 hr MIC against M. intracellulare (NTM); format: cell-based, Mycobacterium intracellulare; conditions: M. intracellulare (Cuttino and McCabe) Runyon ATCC 13950
Klebsiella pneumoniae = format: cell-based
Description: as §2, §3

P. aeruginosa = test: 24-hour time-kill assay at 0.2x, 1x, 5x MIC in CAA, P. aeruginosa; format: cell-based, Pseudomonas aeruginosa
Description: The time-kill assays were performed in CAA media at 37° C. with aeration. Quantitative plating was performed at time periods of 0 hours, 1 hour, 3 hours, and 24 hours. The following Chp peptides were evaluated: Chp2, Chp4, Chp2-M1, Chp4-M1, Chp6, Chp6-M1, Chp10, Chp10-M1, Ecp3, Ecp3-M1, Unp2, Unp2-M1, and Ecp1-M1.

[9] = tested on: P. aeruginosa strain CFS-1292; test: MIC in presence and absence of NaCl (140 mM); format: cell-based, Pseudomonas aeruginosa
Description: Certain Chp peptides were evaluated over a range of physiological NaCl levels and pH values, and were further evaluated for activity in the presence of various divalent cations.

M. scrofulaceum = test: 45 hr MIC against M. scrofulaceum (NTM); format: cell-based, Mycobacterium scrofulaceum; conditions: M. scrofulaceum Prissick and Masson ATCC 19981
[10] = tested on: Mycobacterium tuberculosis strains
Description: MIC values for various Chp peptides were determined using the CLSI method for broth microdilution in 96-well microtiter format.
Next, MIC values for various Chp peptides were determined using the CLSI method above for broth microdilution in 96-well microtiter format for two different Mycobacterium tuberculosis strains. The MIC was determined as explained above for the NTM strains.

M. fortuitum = test: 45 hr MIC against M. fortuitum (NTM); format: cell-based, Mycobacterium fortuitum; conditions: M. fortuitum subsp. Fortuitum da Costa Cruz. ATCC 6841
[11] = tested on: M. kansasii Hauduroy ATCC 12478; test: 45 hr MIC against M. kansasii (NTM), Mueller Hinton broth; format: cell-based, Mycobacterium kansasii
[12] = E. cloacae isolates (n per peptide in table)
[13] = E. coli isolates (n per peptide in table)
[14] = A. baumannii isolates (n per peptide in table)
[15] = K. pneumoniae isolates (n per peptide in table)

For “MKRRKLSKKKSRKIFTRGAVNVKKRNLRARPMRGGFRI [Chp10]”, the MIC50 (Pseudomonas aeruginosa) was 4 µg/mL, the MIC100 (Pseudomonas aeruginosa) was 8 µg/mL and the “MIC Range” value (Pseudomonas aeruginosa) was 0.5 to 8 µg/mL. The MIC ([1]; CAA media + 1 mM MgSO4) was 1 µg/mL, the MIC ([1]; CAA media + 2 mM CaCl2) was 1 µg/mL and the MIC ([1]; CAA media + + 1 mM MgSO4) was 2 µg/mL. It also gave an MIC ([1]; CAA media alone) of 0.5 µg/mL, an MIC ([2]; CAA media + 0.19 mg/mL Survanta) of 0.5 µg/mL and an MIC ([2]; CAA media + […] Survanta) of 0.5 µg/mL. For the same sequence, the MIC ([2]; CAA media alone) was 0.5 µg/mL, the “45 hr MIC” value (M. smegmatis; M. smegmatis MC^2 155, Run #1) was 2 µg/mL and the “45 hr MIC” value (M. smegmatis; M. smegmatis MC^2 155, Run #2) was 1 µg/mL. The MIC50 (Enterobacter cloacae; [12]) was 0.25 µg/mL, the MIC100 (Enterobacter cloacae; [12]) was 1 µg/mL and the “MIC Range” value (Enterobacter cloacae; [12]) was 0.125 to 2 µg/mL. For the same sequence, the MIC (Enterobacter cloacae; Enterobacter cloacae ATCC 13047, CAA supplemented with human serum) was 1 µg/mL, the MIC50 (Escherichia coli; [13]) was 0.5 µg/mL and the MIC100 (Escherichia coli; [13]) was 1 µg/mL. The “MIC Range” value (Escherichia coli; [13]) was 0.03 to 0.2 µg/mL, the MIC (Escherichia coli; Escherichia coli ATCC 25922, CAA supplemented with human serum) was 0.5 µg/mL and the MIC ([3]; CAA media (pH 7)) was 0.5 µg/mL. The MIC ([3]; pH 6) was 2 µg/mL, the MIC ([3]; pH 7) was 1 µg/mL and the MIC ([3]; pH 8) was 1 µg/mL. The “activity (good = MIC100 of ≤4) against all of P. aeruginosa, K. pneumoniae, A. baumannii, E. cloacae, and E. coli” value [4] was “good activity”, the “45 hr MIC” value (M. avium) was 0.5 µg/mL and the MIC50 (S. maltophilia) was 8 µg/mL. The MIC100 (S. maltophilia) was >8 µg/mL, the “MIC BALB/C Mouse Serum” value ([5]; BALB/C mouse serum […]) was 32 µg/mL and the “MIC CAA” value ([5]; CAA) was 1 µg/mL. For the same sequence, the “MIC New Zealand White Rabbit Serum” value ([5]; New Zealand White rabbit serum […]) was 4 µg/mL, the “MIC Sprague Dawley Rat Serum” value ([5]; Sprague Dawley rat serum […]) was 4 µg/mL and the “MIC Human Serum” value ([5]; human serum […]) was 1 µg/mL. For the same sequence, the “MIC (μg/mL) against CFS-1292 in 100% CAA (1st run/2nd run)” value ([6]; 100% CAA, 1st run or single value) was 0.5 µg/mL, the “MIC (μg/mL) against CFS-1292 in CAA + […] human serum” value ([6]; CAA + […] human serum) was 0.5 µg/mL and the “MIC (100% CAA)” value [7] was 0.5. The MIC ([8]; carbapenem-resistant isolate PA19) was 0.5 µg/mL, the MIC ([8]; carbapenem-resistant isolate PA20) was 8 µg/mL and the MIC ([8]; carbapenem-resistant isolate PA21) was 8 µg/mL. For the same sequence, the MIC ([8]; carbapenem-resistant isolate PA22) was 8 µg/mL, the MIC ([8]; carbapenem-resistant isolate PA23) was 4 µg/mL and the MIC ([8]; carbapenem-resistant isolate PA24) was 4 µg/mL. It also gave an MIC ([8]; carbapenem-resistant isolate WLC-452) of 1 µg/mL, an MIC50 (Acinetobacter baumannii; [14]) of 0.5 µg/mL and an MIC100 (Acinetobacter baumannii; [14]) of 0.5 µg/mL. For the same sequence, the “MIC Range” value (Acinetobacter baumannii; [14]) was 0.25 to 0.5 µg/mL, the MIC (Acinetobacter baumannii; Acinetobacter baumannii ATCC BAA 747, CAA supplemented with human serum) was 2 µg/mL and the “45 hr MIC” value (M. intracellulare) was 0.5 µg/mL. The MIC50 (Klebsiella pneumoniae; [15]) was 0.25 µg/mL, the MIC100 (Klebsiella pneumoniae; [15]) was 0.5 µg/mL and the “MIC Range” value (Klebsiella pneumoniae; [15]) was 0.125 to 0.5 µg/mL. The MIC (Klebsiella pneumoniae; Klebsiella pneumoniae HM-44, CAA supplemented with human serum) was 0.5 µg/mL, the “Log10 CFU/mL compared to untreated control buffer (24-hour time-kill)” value (P. aeruginosa) was “all but Chp10 maintaining strong efficacy up to 24 hours” and the “Fold change in MIC” value ([9]; CAA + 140 mM NaCl versus CAA without added NaCl) was 4. For the same sequence, the MIC, CAA + 140 mM NaCl ([9]; CAA + 140 mM NaCl, P. aeruginosa CFS-1292) was 2 µg/mL, the MIC, CAA (no added NaCl) ([9]; CAA, no added NaCl, P. aeruginosa CFS-1292) was 0.5 µg/mL and the “45 hr MIC” value (M. scrofulaceum) was 0.5 µg/mL. The MIC ([10]; Mycobacterium tuberculosis (Zopf) Lehmann and Neumann ATCC 25177) was 32 µg/mL, the MIC ([10]; Mycobacterium tuberculosis (Zopf) Lehmann and Neumann ATCC 35817) was 8 µg/mL and the “45 hr MIC” value (M. fortuitum) was 1 µg/mL. For the same sequence, the “45 hr MIC” value [11] was 4 µg/mL.
